Where two headings read alike, the source gives them in different places.

The values that follow come from article PMC11628845 (Acta Pharmaceutica Sinica. B, 2024).

Data set [1] deals with HBV. Particulars: cited from earlier work.
Data set [2] relates to wild-type HBV (genotype C). Put plainly: microbe, parasite or virus in culture. The class given is cell-based. Particulars: Hepatitis B virus.
The subject of data set [3] is ETV-resistant HBV (rtL180M + A181C + M204V). Nature of the data set: microbe, parasite or virus in culture. The data set is classed as cell-based. The conditions noted are these: Hepatitis B virus.
Data set [4] deals with HBcAg (Hepatitis B virus genotype D subtype ayw, UniProt P03146). The class given is cell-based.
Sequence of HBcAg (P03146 whole entry): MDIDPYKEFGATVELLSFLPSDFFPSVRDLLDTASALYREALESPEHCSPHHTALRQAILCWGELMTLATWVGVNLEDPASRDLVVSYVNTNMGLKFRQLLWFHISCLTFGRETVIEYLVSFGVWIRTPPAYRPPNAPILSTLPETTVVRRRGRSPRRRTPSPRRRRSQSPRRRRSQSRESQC
Data set [5] concerns wild type HBV (pHBV 1.3). Put plainly: microbe, parasite or virus in culture. The data set is classed as cell-based. The conditions noted are these: read-out: HBeAg IC50.
Data set [6] relates to HBV. Put plainly: HBVcircle transfection system in Huh7 cells. The class given is cell-based, Hepatitis B virus. The conditions noted are these: 0.1-200 μmol/L, 48 h.
The target of data set [7] is Cp149 protein (Hepatitis B virus genotype D subtype ayw, UniProt P03146). Put plainly: biochemical. Particulars: read-out: inhibition of capsid formation.
Sequence of Cp149 protein (P03146 1-149): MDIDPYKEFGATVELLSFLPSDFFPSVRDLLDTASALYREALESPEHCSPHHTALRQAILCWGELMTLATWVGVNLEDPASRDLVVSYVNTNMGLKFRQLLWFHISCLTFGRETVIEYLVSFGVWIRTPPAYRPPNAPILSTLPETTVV
The nature of data set [8]: in vivo. The arrangement: species or system ICR mouse.
The test system of data set [9] is HBV genotypes A‒D. Nature of the data set: Antiviral activity across HBV genotypes A‒D in Huh7. The class given is cell-based. Particulars: Hepatitis B virus, Huh-7, read-out: IC50 across HBV genotypes.
Data set [10] deals with HBV (pHBV1.3).
Data set [11] concerns HBV. Nature of the data set: HBV infection of HepG2-NTCP cells, secreted HBeAg by ELISA.
The mark [12] stands for this setting: Huh-7, read-out: HBeAg IC50, rt180M181C204V.

Regarding `COC(=O)C1=C(CN2CCOCC2)NC(c2nccs2)=N[C@@H]1c1ccc(F)cc1Br` [NVR-010-001-E2], the IC50 in [1] was 11 nM.

Regarding `C=C1[C@H](CO)[C@@H](O)C[C@@H]1n1cnc2c(=O)[nH]c(N)nc21` [ETV, entecavir, reference compound], the IC50 is more than 100000 nM in [2] (Huh-7, read-out: HBeAg IC50) and more than 100000 nM in data set [3] (setting [12]).

As to `O=C(NCc1cnc(C(F)(F)F)s1)c1ccc2c(c1)NC(=O)c1ccccc1S2(=O)=O` [vebicorvir], the IC50 in data set [1] was 173 nM.

Take GLS4: in [4], the “concentration needed to significantly inhibit HBcAg's expression” value is “above 10 μmol/L”. Besides, in data set [4], the “decrease of HBcAg expression” value worked out at 56.4%. Besides, the IC50 in [5] (Wide type (pHBV 1.3)) is 252 nM; in data set [1], 12 nM.

As to `COc1ccccc1/C(Br)=C(\NC(=O)c1ccc([N+](=O)[O-])cc1)C(=O)N1CCCCC1` [AT-130], the IC50 in [1] was 127 nM.

Turning to `C[C@H](NS(=O)(=O)c1cc(C(=O)Nc2ccc(F)c(C#N)c2)n(C)c1)C(F)(F)F` [JNJ-379], in data set [1] (no reference printed directly), the IC50 was 69 nM.

With `CCOC(=O)C1=C(CN2CCN3C(=O)N(CC(C)(C)C(=O)O)C[C@@H]3C2)N=C(c2nccs2)N[C@H]1c1cccc(F)c1C` [RG7907, linvencorvir], the IC50 in [1] was 6 nM.

In the case of `CCOC(=O)C1=C(CN2CCO[C@H](CCC(=O)O)C2)NC(c2nccs2)=N[C@H]1c1ccc(F)cc1Br` [HEC72702, 3-((R)-4-(((R)-6-(2-Bromo-4-fluorophenyl)-5-(ethoxycarbonyl)-2-(thiazol-2-yl)-3,6-dihydropyrimidin-4-yl)methyl)morpholin-2-yl)propanoic acid], the IC50 in data set [1] was 39 nM.

With `COC(=O)C1=C(C)NC(c2ncc(F)cc2F)=N[C@H]1c1ccc(F)cc1Cl` [Bay 41-4109], the IC50 in data set [1] (anti-HBV potency) is 50 nM.

For `Cc1cc(NC(=O)c2cccc(S(=O)(=O)N[C@H]3CCOC3)c2)ccc1F` [JNJ-632], the IC50 in data set [1] was 120 nM.

In the case of `COc1ccc(Cc2nc(NC(=O)C34CC5CC(CC(C5)C3)C4)n(C)c2Cc2ccc(OC)c(OC)c2)cc1` [11a, (Z)-N-(5-(3,4-Dimethoxybenzyl)-4-(4-methoxybenzyl)-1-methyl-1,3-dihydro-2H-imidazole-2-ylidene)adamantane-1-carboxamide], the “HBsAg and cccDNA” value in data set [6] is “not HBsAg and cccDNA”. Further, the “secreted HBeAg” value in data set [6] is “inhibits HBeAg in a concentration-dependent manner”. In addition, the IC50 in data set [2] (Huh-7, read-out: HBeAg IC50) was 12900 nM; in [2] (Huh-7, wild-type cells), 750 nM; in data set [3] (Huh-7, ETV-resistant cells) it was 13700 nM; in data set [3] (setting [12]) it was 45700 nM; in data set [5] (Hepatitis B virus), 15200 nM; in [9], 100 to 1970 nM. For the same compound, the IC50 in [11] (Hepatitis B virus, read-out: half inhibitory concentration on HBeAg) stood at 23700 nM. Besides, the inhibition at 40 µM in [7] was 53%. Also, the half-life in data set [8] (both, ICR, mouse, in vivo) was 3 to 6.2 h. Besides, the bioavailability in data set [8] (both, ICR, mouse, in vivo, po, 10 mg/kg) lay in the range of 24.8 to 39.2%. This compound gave a plasma clearance in data set [8] (po, range over female and male mice) of 202 to 322 mL/min/kg. The “HBV DNA vs control group” value in data set [10] (50 mpk b.i.d., intraperitoneal) is reported as “no statistical difference”. Besides, the “serum HBeAg and HBsAg levels” value in data set [10] (50 or 100 mpk b.i.d.) is “None of these treatments altered serum HBeAg and HBsAg levels”. Besides, the “reduction of HBV DNA in plasma” value in data set [10] (100 mpk b.i.d., intraperitoneal, Day 5) amounted to 4 fold. Further, the “antiviral effect of combination with TDF” value in [10] (TDF 2 mpk q.d. and 11a 100 mpk b.i.d.) is “weak synergistic antiviral effects”. For the same compound, in data set [10] (control vs experimental groups), the “serum ALT and AST levels or body weight” value is “no significant changes”. Also, the “H&E staining in liver tissues” value in [10] (mouse, in vivo) was “no obvious pathological changes”. For the same compound, the “levels of HBcAg in liver, immunofluorescence” value in [10] (mouse, in vivo) was “significantly reduced the levels of HBcAg”. For the same compound, the “inhibition of HBeAg levels in combination with IFNa2” value in [11] (IFNa2 1000 IU/mL plus 11a 10 and 30 μmol/L, HepG2-NTCP) is listed as “significant synergistic inhibition”.
